A short description of the series: Deliquescence test: 1 g of composition left uncovered in a petri dish at 25° C. for 1 week, appearance and weight change evaluated. Also noted: key: High fluidity and silky smoothness.; Δ: Slightly moist but highly fluid powder.; x: Agglomeration or deliquescence occurred. It counts as physicochemical. The note with it: for Appearance after 1 week / Appearance after 1 day: left uncovered at 25° C. As for the experimental part:
R-3HB crystals or R-3HB salts (3HB-Na: sodium salt, 3HB-K: potassium salt) and oil and fat particles were weighed in the proportions shown in Table 2 below. Each mixture thereof was milled for 3 seconds five times in a mill mixer (IJM-M800-W, produced by Iris Ohyama Inc.). 1 g of each of the 3HB-containing compositions obtained in the Examples and Comparative Examples was weighed in petri dishes and left uncovered in a room adjusted to 25° C. for 1 week. The appearance and weight change of each composition was then evaluated. As comparative examples, combinations of commonly used silicon dioxide or calcium silicate and fat and/or oil were evaluated. […] The evaluation was made according to the following criteria.
o: High fluidity and silky smoothness. Δ: Slightly moist but highly fluid powder. x: Agglomeration or deliquescence occurred.

Turning to `CC(O)CC(=O)[O-].[K+]` (stereo not drawn) [Comp. Ex. 2], the “Appearance immediately after milling” value is “Δ”, the “Appearance after 1 week” value is on record as “x” and the “Appearance after 1 day” value was “x”.
Consider `CC(O)CC(=O)[O-].[Na+]` (stereo not drawn) [Comp. Ex. 3], for which the “Appearance immediately after milling” value was “∘”, the “Appearance after 1 week” value was “x” and the “Appearance after 1 day” value was “x”.
Regarding `CC(O)CC(=O)O` (stereo not drawn) [Comp. Ex. 1, 3-Hydroxybutyric acid], the “Appearance immediately after milling” value was “Δ”, the “Appearance after 1 week” value is given as “x (Partial” and the “Appearance after 1 day” value is listed as “x (Partial”.
